Data set [1] relates to mice. Conditions: Control, formulated in TRIS/HCl; intravenous; published (Heglund et al. 1995); cited from earlier work.
Data set [2] concerns rats. The following applies: Control, formulated in TRIS/HCl; intravenous; published (Heglund et al. 1995); cited from earlier work.
Data set [3] can be described thus: Stability of iosimenol to autoclave sterilization (20 min at 121° C.), free iodide measured. In kind it is physicochemical. Conditions: for I− after / I− before: single samples. As to the method: Samples of Iosimenol were formulated in 20 mM TRIS+5 mM citric acid, TRIS/HCl and 10 mM TRIS+3.3 mM citrate. Samples were then autoclaved for 20 minutes at 121° C. and the amounts of free iodine measured.
(§1) A 5 micron C18 column 25 cm×4.6 mm ID was eluted with 30% acetonitrile/70% 0.05 M KH2PO4 containing 7 ml/L of 40% tetrabutyl ammonium hydroxide. 20 μl of a 10 μg I^−/ml was the standard. 20 μl of a test sample of iosimenol was injected and UV absorbance measured at 230 nm, 0.2 AU. Under these conditions, the iodide standard eluted after 5.6 minutes and gave an area of “X” counts.
(§2) Iodide was alternately determined by extraction and spectrophotometry according to USP24/NF19, p 911 (1995). In general, the solution containing iodide is oxidized in the presence of acid, with sodium nitrite and then extracted into toluene which is then read at a wavelength of 500 nm. Comparison of standard samples with experimental samples yields the amount of iodide present in the sample.

In data set [4] the test system is rats. Description: Intravenous LD50 (systemic tolerance) in rats. In kind it is in vivo. As to the method:
(§3) To examine the effects of the TRIS/citrate buffer system of this invention on the biological tolerance, using standard methods, we assessed intravenous murine and rat LD50 of iosimenol formulated either in TRIS/HCl or in the novel TRIS/citric acid buffers, and compared the results with those published for the clinically employed nonionic dimer iodixanol (formulated in TRIS/HCl buffer; Heglund IF et al., Acta Radiol. Suppl. 1995:399:69-82). Murine and rat LD50 were obtained by 1 ml/min injection of 340 mg I/ml; data at 7 days and based on the 50% survival of the animals was expressed as g I/kg bw (Table 3).

Data set [5] deals with mice. Description: Intravenous LD50 (systemic tolerance) in mice. The class given is in vivo. Here is the method:
as §3

A short description of data set [6]: Separate study: stability of iosimenol after autoclaving in TRIS/HCl and TRIS/citric acid (pH, iodide release). The class given is physicochemical. The following applies: 121° C. for 20 min; for pH after autoclaving / ΔI−: pre-autoclaving pH 7.00, Ca/Na EDTA 0.1 mg/ml, 340-355 mg I/ml. Here is the method:
as §1, §2

[7] abbreviates: Buffer 10 mM TRIS + 3 mM citric acid.

Several values for one entry are separate records, joined by “and”; a condition that tells them apart may be missing. Equal values may be shown once. Read-outs that look alike come from different tables or passages of the source.

For `CC(=O)N(CC(O)CN(C(C)=O)c1c(I)c(C(=O)NCC(O)CO)c(I)c(C(=O)NCC(O)CO)c1I)c1c(I)c(C(=O)NCC(O)CO)c(I)c(C(=O)NCC(O)CO)c1I` (stereo not shown) [Iodixanol], the LD50 mice in the data set with mice [1] was 21.0 g I/kg bw. Further, the LD50 rats in the data set with rats [2] is recorded as 21.0 g I/kg bw.
On to `NC(=O)c1c(I)c(C(=O)NCC(O)CO)c(I)c(N(CC(O)CO)C(=O)CC(=O)N(CC(O)CO)c2c(I)c(C(N)=O)c(I)c(C(=O)NCC(O)CO)c2I)c1I` (stereo not shown) [Iosimenol, N,N′-Bis[3-carbamoyl-5-(2,3-dihydroxypropyl-carbamoyl)-2,4,6-triiodophenyl]-N,N′-bis(2,3-dihydroxypropyl)-malonamide], for which the “Stability on autoclaving (in words)” value in data set [3] (20 mM TRIS and 5 mM citric acid, pH about 6.5 to 7.5, compared with TRIS/HCl or TRIS/citrate in molar equivalent ratio) is listed as “always somewhat less or equally stable”. Also, the “I− after, Avg.” value in data set [3] (Buffer 10 mM TRIS + 3.3 mM citrate, after 20 min at 121° C., average) worked out at 21.84 µg/mL; in data set [3] (Buffer 20 mM TRIS + 5 mM citric acid, after 20 min at 121° C., average), 16.90 µg/mL. In addition, the “I− after” value in data set [3] (Buffer 10 mM TRIS + 3.3 mM citrate, after 20 min at 121° C.) is 22.34 µg/mL and 21.51 µg/mL and 21.66 µg/mL; in data set [3] (Buffer 20 mM TRIS + 5 mM citric acid, after 20 min at 121° C.), 15.80 µg/mL and 15.96 µg/mL and 16.11 µg/mL and 16.53 µg/mL and 18.87 µg/mL and 18.13 µg/mL; in data set [3] (Buffer 20 mM TRIS/HCl, after 20 min at 121° C.), 14.07 µg/mL and 14.19 µg/mL and 14.39 µg/mL. Besides, the “ΔI−” value in data set [3] (Buffer 10 mM TRIS + 3.3 mM citrate, after minus before 20 min at 121° C.) was “+17.84 μg/ml”; in data set [3] (Buffer 20 mM TRIS + 5 mM citric acid, after minus before 20 min at 121° C.) it was “+12.90 μg/ml”; in data set [6] (setting [7]), “+24.2 μg/ml”; in data set [6] (Buffer 10 mM TRIS/HCl), “+8.7 μg/ml”; in data set [6] (Buffer 20 mM TRIS/HCl), “+7 μg/ml”. Moreover, the “I− before, Avg.” value in data set [3] (Buffer 10 mM TRIS + 3.3 mM citrate, before autoclaving, average) is 4.00 µg/mL; in data set [3] (Buffer 20 mM TRIS + 5 mM citric acid, before autoclaving, average) it was 4.00 µg/mL. Besides, the “I− before” value in data set [3] (Buffer 10 mM TRIS + 3.3 mM citrate, before autoclaving) was 3.99 µg/mL and 4.17 µg/mL and 3.83 µg/mL; in data set [3] (Buffer 20 mM TRIS + 5 mM citric acid, before autoclaving), 4.08 µg/mL and 3.94 µg/mL and 3.42 µg/mL and 3.59 µg/mL and 4.44 µg/mL and 4.52 µg/mL; in data set [3] (Buffer 20 mM TRIS/HCl, before autoclaving) it was 4.29 µg/mL and 4.44 µg/mL and 4.27 µg/mL. Besides, the “I− after, average (row not labelled)” value in data set [3] (Buffer 20 mM TRIS/HCl, after 20 min at 121° C., average) came out at 14.22 µg/mL. The “ΔI− (row not labelled)” value in data set [3] (Buffer 20 mM TRIS/HCl, after minus before 20 min at 121° C.) is “+9.89 μg/ml”. Also, the “I− before, average (row not labelled)” value in data set [3] (Buffer 20 mM TRIS/HCl, before autoclaving, average) came to 4.33 µg/mL. In addition, the “Stability under autoclaving (in words)” value in data set [3] (carboxylic acid neutralized by an amine, compared with TRIS/carboxylic acid where TRIS prevailed or TRIS/HCl) is “less stable”. The LD50 rats came out at 23.5 g I/kg bw in the data set with rats [4] (20 mM TRIS + 5 mM citric acid, intravenous, 1 ml/min injection of 340 mg I/ml, data at 7 days) and 20.0 g I/kg bw in the data set with rats [4] (rat, in vivo, iv). Moreover, the “LD50 in 20 mM TRIS with 5 mM citrate compared with 20 mM TRIS/HCl (in words)” value is recorded as “statistically significantly higher LD50” with rats [4] (rat, intravenous) and “statistically significantly higher LD50” in the data set with mice [5] (murine, intravenous). The LD50 mice in the data set with mice [5] (mouse, in vivo, iv) is reported as 22.0 g I/kg bw. Moreover, the pH after autoclaving is listed as 6.90 in data set [6] (setting [7]), 6.49 in data set [6] (Buffer 10 mM TRIS/HCl) and 7.00 in data set [6] (Buffer 20 mM TRIS/HCl). Besides, the “Stability after autoclaving (in words)” value in data set [6] (TRIS/citric acid in a non-equivalent ratio compared with TRIS/HCl buffer) was “lower stability”.

(Values after patent publication US7250153B2, “Contrast media formulations having improved biological tolerance” (Biophysica Research, Inc., priority 2002, dated 2007).)
